This is an account of results in PubChem BioAssay AID1549 (Sanford-Burnham Center for Chemical Genomics, 2009).

Active and inactive are the calls of the source. The rule behind the calls is not given here. A value given as a limit tells only on which side of the number the result lay.

The test concerns the target Influenza A virus M2 proton channel (A/TW/4845/1999 H1N1). The test can be described thus: NMR binding screen, influenza A virus M2 proton channel, Kd (AID 1549). Particulars: M2 protein.
The Kd is a measure of binding affinity in units of concentration. As for `CN1CCN(C(=S)NC(=O)c2ccn(C)n2)CC1`, the Kd is > 4 mM (inactive).
Then `O=C(O)CNS(=O)(=O)c1cccs1`, with > 4 mM (inactive); and `Cc1cc2nc(SCC(=O)O)nc(C)c2cc1C`, with > 4 mM (inactive).
As for `O=C1CNC(=O)N1c1cccc(Cl)c1`, the figure is > 4 mM (inactive).
Then `Cc1cc(NC(=O)CSc2ccnc(=O)[nH]2)no1`, with > 4 mM (inactive); and `NC(=O)CS(=O)(=O)c1ccc2ccccc2c1`, with > 4 mM (inactive); and `CN(C(N)=O)C1(C)CCS(=O)(=O)C1` (stereo not drawn), with > 4 mM (inactive).
Turning to `O=C(Nc1ccc2c(c1)OCO2)c1cnn2cccnc12`, the Kd is > 4 mM (inactive).
As for `Nc1cccc2cccnc12`, the figure is > 4 mM (inactive); as for `COc1ccc(-c2coc3c(O)c(OC)ccc3c2=O)cc1`, > 4 mM (inactive).
Turning to `N#Cc1cc2ccccc2nc1N`, the Kd was > 4 mM (inactive).
In the case of `O=C(O)CN(CCCc1ccccc1)CC(=O)O`, the Kd is > 4 mM (inactive).
`O=C(c1ccccc1-c1ccccc1)N1CCOCC1`: the Kd is > 4 mM (inactive).
For the molecule `Cc1nn(-c2ccccc2)c(Cl)c1C(N)=O`, the Kd was > 4 mM (inactive).
As for `O=c1[nH]cc(Nc2ccccc2)c(=O)[nH]1`, the figure is > 4 mM (inactive); as for `S=C(Cc1cccnc1)N1CCOCC1`, > 4 mM (inactive); as for `O=C(c1cccc(C(F)(F)F)c1)N1CCCC1`, > 4 mM (inactive).
Then `Cc1sc2nc(-c3ccco3)oc(=O)c2c1C`, with > 4 mM (inactive); and `c1ccc2c(NC3=NCCS3)cccc2c1`, with > 4 mM (inactive); and `O=C(Nc1ccccn1)C(=O)N1CCCC1`, with > 4 mM (inactive).
As for `O=C(O)CNC(=O)c1ccccc1`, the figure is > 4 mM (inactive); as for `S=C(NC1=NCCS1)Nc1ccccc1`, > 4 mM (inactive); as for `Cc1ccc(N2NC(=O)CC2=O)cc1C`, > 4 mM (inactive).
Consider `COc1c2c(cc3cc[n+](C)cc13)OCO2`, for which the Kd was > 4 mM (inactive).
`CSc1nc(NC(C)(C)C)nc(N2CCOCC2)n1`: the Kd is > 4 mM (inactive).
Then `NCc1ccc(-c2cccs2)s1`, with > 4 mM (inactive).
As for `CSc1cc(C)[nH]c(=O)n1`, the figure is > 4 mM (inactive).
Then `Nc1ccccc1C(=O)N1CCNC(=O)C1`, with > 4 mM (inactive); and `O=C1CC[C@]23/C=C/C(=O)NCCCCNCCCNC(=O)/C=C/c4ccc(c2c4)O[C@@H]3C1`, with > 4 mM (inactive).
On to `CC1CCN(C(=O)c2ccc3c(c2)OCCO3)CC1`, for which the Kd is > 4 mM (inactive).
As for `O=C(COc1ccccc1O)NCCO`, the figure is > 4 mM (inactive).
With `Cc1occc1C(=O)Nc1sccc1C(N)=O`, the Kd is > 4 mM (inactive).
As for `CCc1cccc(C)c1NC(=O)c1cc(C)oc1C`, the figure is > 4 mM (inactive); as for `NS(=O)(=O)c1ccccc1Cl`, > 4 mM (inactive).
As for `CN1CCN(c2ccc(CN)cc2)CC1`, the figure is > 4 mM (inactive); as for `CS(=O)(=O)c1ccc(N)cc1`, > 4 mM (inactive).
As for `Cc1noc(C)c1C(=O)Nc1ccc2c(c1)CCC2`, the figure is > 4 mM (inactive).
Turning to `O=c1cc(O)nc(SCc2ccccc2)[nH]1`, the Kd was > 4 mM (inactive).
As for `Cc1cc(C(=O)c2c(C)nn(C)c2Cl)n(C)n1`, the figure is > 4 mM (inactive).
In the case of `O=C1NC(=Nc2ccc(O)cc2)S/C1=C/c1ccco1`, the Kd was > 4 mM (inactive).
Then `CC(=O)Oc1ccc2c(c1)c(C(C)=O)c(C)n2C`, with > 4 mM (inactive); and `c1cncc(Nc2nc(-c3ccncc3)cs2)c1`, with > 4 mM (inactive).
As for `S=C(Nc1ccc2nccnc2c1)N1CCOCC1`, the figure is > 4 mM (inactive); as for `O=C(O)c1cnn2ccccc12`, > 4 mM (inactive).
Turning to `COCC(=O)Nc1cccc2ccccc12`, the Kd is > 4 mM (inactive).
Then `CCN1C(=O)c2c(C)nc3ccccc3c2C1=O`, with > 4 mM (inactive).
As to `S=C(NCc1ccco1)NN1CCOCC1`, the Kd is > 4 mM (inactive).
As for `CCC(=O)Nc1ccc(-c2nn3c(C)nnc3s2)cc1`, the figure is > 4 mM (inactive); as for `COc1ccc2c(c1)OC1(O)COc3cc(OC)c(OC)cc3C1=C2` (stereo not drawn), > 4 mM (inactive).
As for `S=c1nc[nH]c2c1cnn2-c1ccccc1`, the figure is > 4 mM (inactive).
For the molecule `Cc1cc(C)n2nc(C(=O)NCc3ccco3)nc2n1`, the Kd was > 4 mM (inactive).
Regarding `CC(=O)N1CN(C(C)=O)CN(C(C)=O)C1`, the Kd is > 4 mM (inactive).
With `COCc1nn2c(N)c(C#N)cnc2c1-c1ccccc1`, the Kd is > 4 mM (inactive).
As for `O=c1c(-c2cc(O)c(O)c(O)c2)coc2cc(O)c(O)c(O)c12`, the figure is > 4 mM (inactive); as for `Cc1cc(C)n(-c2nc(C)nc(N)n2)n1`, > 4 mM (inactive); as for `COC(=O)c1scc(S(C)(=O)=O)c1-n1cccc1`, > 4 mM (inactive).
As for `Nc1nc(=S)n2c(n1)oc1ccccc12`, the figure is > 4 mM (inactive); as for `c1ccc2nc3c(nc2c1)CCc1nonc1-3`, > 4 mM (inactive).
As for `OCCNC(=S)Nc1ccccc1`, the figure is > 4 mM (inactive); as for `Cc1ccc(CO)o1`, > 4 mM (inactive); as for `Cn1c(CSc2nc3ccccc3s2)n[nH]c1=S`, > 4 mM (inactive).
In the case of `O=C(Nc1ccon1)c1cc2c(s1)CCCC2`, the Kd was > 4 mM (inactive).
As for `Cc1ccc(-c2cc(C(=O)N3CCCC3)no2)cc1`, the figure is > 4 mM (inactive); as for `CC(=O)c1cccc(NC(=O)Nc2c(C)nn(C)c2C)c1`, > 4 mM (inactive); as for `C[C@H]1[C@H](C)CC[C@]2(CO)CC[C@]3(C)C(=CCC4[C@@]5(C)CC[C@H](O)C(C)(C)C5CC[C@]43C)[C@H]12` (stereo partly drawn), > 4 mM (inactive).
In the case of `CN1C(=O)C2C=CC1C1C(=O)N(c3ccccc3)C(=O)C21` (stereo not drawn), the Kd is > 4 mM (inactive).
Then `O=C(O)C(CO)c1ccccc1` (stereo not drawn), with > 4 mM (inactive).
For the molecule `O=C(c1ccccc1)N1CCOCC1`, the Kd was > 4 mM (inactive).
Then `Nc1ncnc2c1ncn2CCN1CCOCC1`, with > 4 mM (inactive); and `CN(C)CCNC(CC(=O)Nc1ccccc1)C(=O)O` (stereo not drawn), with > 4 mM (inactive).
Then `Cc1c(C(=O)Nc2cnccn2)oc2ccccc12`, with > 4 mM (inactive); and `NC(=O)/C=C/C(=O)Nc1ccccc1`, with > 4 mM (inactive).
As for `NC(=O)Cc1nc2ccccc2[nH]1`, the figure is > 4 mM (inactive).
As for `OCC1CNc2ccccc2O1` (stereo not drawn), the Kd is > 4 mM (inactive).
Then `O=NN1C(=O)c2ccccc2C1=O`, with > 4 mM (inactive); and `NC(=O)CN1C(=O)c2cccc3cccc1c23`, with > 4 mM (inactive).
In the case of `COc1ccc(-c2coc3c(OC)c(OC)cc(OC)c3c2=O)cc1`, the Kd was > 4 mM (inactive).
As for `C/C(O)=c1/sc2cc(C)nc(=N)n2c1=O`, the figure is > 4 mM (inactive); as for `O=C(O)C1Cc2ccccc2N1` (stereo not drawn), > 4 mM (inactive); as for `NCc1oc(-c2ccccc2)cc1C(=O)O`, > 4 mM (inactive).
Then `O=C(NN1C(=O)C2C3C=CC(C3)C2C1=O)C1CC=CCC1` (stereo not drawn), with > 4 mM (inactive); and `CN(C)C(=O)Nc1ccc2c(c1)nnn2C`, with > 4 mM (inactive).
Then `Cc1occc1C(=O)Nc1ccc2c(c1)CCC2`, with > 4 mM (inactive); and `Cc1cc(C(=O)O)n[nH]1`, with > 4 mM (inactive).
For `C#CCCCCCCCCCCCc1ccco1`, the Kd was > 4 mM (inactive).
Then `Cc1cc2c(=O)n(C)c(SCC(N)=O)nc2s1`, with > 4 mM (inactive); and `NCc1cccc2nsnc12`, with > 4 mM (inactive); and `Oc1cccc(N2CCOCC2)c1`, with > 4 mM (inactive).
As for `COc1ccc(C(C)=O)c(OC)c1`, the figure is > 4 mM (inactive); as for `O=C(Nn1cnnc1)c1cccc(C(F)(F)F)c1`, > 4 mM (inactive).
On to `O=S1(=O)C=CC(N2CCCCC2)C1` (stereo not drawn), for which the Kd was > 4 mM (inactive).
Then `c1cnc(N2CCNCC2)nc1`, with > 4 mM (inactive); and `CN(C)C(=O)c1ccccc1-c1ccccc1`, with > 4 mM (inactive).
Then `NC1=NC(=O)/C(=C\c2cccc(C(=O)O)c2)S1`, with > 4 mM (inactive); and `O=C(Nc1ccc2c(c1)OCO2)c1ccc(=O)[nH]n1`, with > 4 mM (inactive); and `COc1cc2c(cc1OC)C(C)NCC2` (stereo not drawn), with > 4 mM (inactive).
As for `O=C(CCc1n[nH]c(=O)[nH]c1=O)NCc1ccccc1`, the Kd is > 4 mM (inactive).
As for `Cc1cc(C)c(NC(=O)CN2CCC(O)CC2)c(C)c1`, the figure is > 4 mM (inactive).
Take `NCc1csc(-c2cccs2)n1`: the Kd is > 4 mM (inactive).
As for `Cc1c(CCO)c(=O)n2c([nH]c3ccccc32)c1C#N`, the figure is > 4 mM (inactive); as for `CC(=O)O[C@@H]1CC2C(C)(C)CCC(=O)[C@]2(C)C2CC[C@@]3(C)[C@H](c4ccoc4)OC(=O)C4OC43[C@@]21C` (stereo partly drawn), > 4 mM (inactive).
As for `c1ccc(CCc2nc(-c3ccncc3)no2)cc1`, the figure is > 4 mM (inactive); as for `CC(=O)Nc1ccc(S(=O)(=O)NCC2CCCO2)cc1` (stereo not drawn), > 4 mM (inactive); as for `COn1c(=O)c(-c2ccco2)[n+]([O-])c2ccccc21`, > 4 mM (inactive).
As for `C=C(C)C1(O)OC(=O)C=C1OC` (stereo not drawn), the figure is > 4 mM (inactive); as for `NC(=O)CC1Nc2cccc3cccc(c23)NC1=O` (stereo not drawn), > 4 mM (inactive); as for `CC(=O)NCc1nc2ccccc2[nH]1`, > 4 mM (inactive).
Regarding `O=C(CC1Nc2ccccc2NC1=O)Nc1ccc(O)cc1` (stereo not drawn), the Kd was > 4 mM (inactive).
